According to patent publication US12662707B2, “MYC amplification drives resistance to pan-RAS inhibitors in pancreatic cancer” (The Trustees of Columbia University in the City of New York, priority 2024, dated 2026):

Key:
[1] = system: human DUSP6 expression in Capan-1 CDX tumors; assay: PK/PD in Capan-1 xenograft tumors (DUSP6 qRT-PCR); type: in vivo, mouse
Description: Tumor-bearing animals were randomized and assigned into groups (n=3-10/group). Vehicle or RMC-7977 was administered via oral gavage daily at 10 mg/kg and animals were treated for 21-28 days. Studies were terminated early if tumor burden reached humane endpoint. Body weights were collected twice a week during the study. Means±s.e.m were plotted in the waterfall plots. For the single-dose pharmacokinetic/pharmacodynamic (PK/PD) study, mice were randomized and assigned into groups (n=3-6/dose/timepoint). A single dose of RMC-7977 was administered orally at 10 mg/kg, 25 mg/kg and 50 mg/kg. […]
Whole blood, tumor, colon and skin tissue concentrations of RMC-7977 were determined using liquid chromatography-tandem mass spectrometry (LC-MS/MS) methods. […] After thorough mixing and centrifugation, the supernatant was directly analyzed on a Sciex 6500+ triple quadrupole mass spectrometer equipped with an ACQUITY or Shimadzu UPLC system. […] RMC-7977 and IS (verapamil or terfenadine) were detected by positive electrospray ionization using multiple reaction monitoring (RMC-7977: m/z 865.4/706.4 or m/z 865.3/833.5; verapamil: m/z 455.2/164.9; terfenadine: m/z 472.3/436.4). The lower limit of quantification was 0.5 ng/mL or 2.0 ng/mL for blood, tumor, and other tissue. […]

pERK in colon = assay: pERK IHC in colon tissues of KPF/FC mice; type: in vivo, mouse; settings: KPF/FC cohort; 10 and 25 mg/kg dose levels
Description: Tumor formation in KPF/FC (KrasLSL.G12D/+; p53flox/flox; Pdx1-Cre) mice was monitored by bi-weekly palpations until the detection of a mass, which was then confirmed by ultrasound. Tumor-bearing mice were randomized and assigned into groups (n=3/dose/timepoint). Single dose of RMC-7977 was administered orally at 10 mg/kg, 25 mg/kg and 50 mg/kg. The same vehicle formulation was used for the control group. Whole blood and tissue (tumors and colons) were harvested at indicated time points preserved as previously described (See Xenograft studies section).
All tissues were fixed for up to 24 hours using 10% neutral buffered formalin and then moved to 70% ethanol for long term storage. All stainings were performed on 4-μm tissue sections. Sections were deparaffinized using a Leica XL ST5010 autostainer, after which slides were subjected to heat-activated epitope retrieval. To block endogenous peroxidases, 20 min incubation in 3% H2O2 (Fisher Scientific) was performed. Slides were further blocked in serum for 1 hour, and primary antibodies were added for overnight incubation at 4° C. The next day, slides were washed and incubated with ImmPRESS HRP Horse Anti-Rabbit IgG Polymer Detection Kit (Vector Laboratories, MP-7401) for 30 min. […] Quantitative analyses of IHC images were performed using ImageJ.

Compound: CCn1c(-c2cc(N3CCN(C4CC4)CC3)cnc2[C@H](C)OC)c2c3cc(ccc31)-c1csc(n1)C[C@H](NC(=O)[C@H]1[C@@H]3COC[C@@H]31)C(=O)N1CCC[C@H](N1)C(=O)OCC(C)(C)C2 [RMC-7977]
- EC50 ([1]; Mus musculus, CAPAN-1, read-out: EC50, inhibition of DUSP6 expression vs RMC-7977 concentration in tumors): 142 nM
- duration of DUSP6 inhibition post-dose ([1]; single dose 10, 25 or 50 mg/kg): 24 to 48 h
- RAS/MAPK activity (pERK) in colon tissues (pERK in colon): rapidly restored to baseline
